From patent US9315543B2, “Tyrosine based linkers for the releasable connection of peptides” (Bayer Intellectual Property GmbH, priority 2011, dated 2016)

Experiment: Cleavage kinetics (stability) of tyrosine based linker derivatives in buffer at pH 4 and pH 7.4, HPLC
Format: physicochemical
Details: room temperature; for % cleaved pH 4, 0 h / % cleaved pH 4, 24 h: pH 4 solution/acetonitrile; for % cleaved pH 4, 0 h / % cleaved pH 4, 24 h / % cleaved pH 7.4, 0 h / % cleaved pH 7.4, 6 h / % cleaved pH 7.4, 24 h: HPLC peak area; for % cleaved pH 7.4, 0 h / % cleaved pH 7.4, 6 h / % cleaved pH 7.4, 24 h: pH 7.4 buffer/acetonitrile; for cleavage kinetic (in words): summary of Table 1, pH 4 and pH 7.4, up to 24 h
Description: To illustrate the different kinetics of different linkers, simple derivatives of the tyrosine based molecule were synthesized and the cleavage at different time points in buffer at pH 4 and pH 7.4 were monitored. Based on the exact composition of the tyrosine based linker structure the formation of the cyclic urea with concomittant release of the free tyrosine OH group has different cleavage kinetics. These can be easily measured in vitro and used as predictors for the in vivo kinetics.
For the kinetic studies with regard to the stability of the different linkers 0.3 mg of the dry test compound are dissolved in 0.5 ml acetonitrile. For a better dilution the sample is sonified for about 10 seconds. Then 1.0 ml of the buffer solutions are added and the samples are sonified again.
Chemical composition of the solution/buffer which are used: • pH 4: 1 liter of deionized water was adjusted to pH 4 with 1N hydrochloric acid • pH 7.4: 90 g sodium chloride, 13.61 g potassium dihydrogene phosphate and 83.35 g 1 M sodium hydroxide solution were dissolved in 1 liter of deionized water. This solution was diluted with water at the rate of 1:10.
The test compound concentration is analysed by HPLC every hour during 24 hours at room temperature. The quantity of the test compound is determined by the peak areas.
HPLC method: Agilent 1100 with DAD (G1315B), binary pump (g1312A), autosampler (G1329A), column thermostat (G1330B), Column: Kromasil 100 C18/250 mm×4 mm/5 μm, Column temperature: 30° C., Eluent A: water+5 ml perchloric acid/1, Eluent B: acetonitrile, Gradient: 0-1.0 min 90% A, 10% B; 1.0-20.0 min 10% A, 90% B; 20.0-21.0 min 10% A, 90% B; 21.0-23.0 min 90% A, 10% B; 23.0-25.0 min 90% A, 10% B; Flow rate: 1.5 ml/min, Detection: 210 nm, Injection volume: 10 μl.

| Compound | % cleaved pH 4, 0 h | % cleaved pH 4, 24 h | % cleaved pH 7.4, 0 h | % cleaved pH 7.4, 6 h | % cleaved pH 7.4, 24 h | cleavage kinetic (in words) |
| --- | --- | --- | --- | --- | --- | --- |
| NCC[C@H](NC(=O)Oc1ccc(C[C@H](N)C(=O)Nc2ccccc2)cc1)C(=O)N[C@@H](CSC1CC(=O)N(Cc2ccccc2)C1=O)C(N)=O (stereo partly shown) [Example 5C] | 0% | 0% | 0% | 75% | 100% | cleaved quickly |
| NC[C@H](NC(=O)Oc1ccc(C[C@H](N)C(=O)Nc2ccccc2)cc1)C(=O)N[C@@H](CSC1CC(=O)N(Cc2ccccc2)C1=O)C(N)=O (stereo partly shown) [Example 11C] | 0% | 19% | 0% | 100% | 100% | cleaved very quickly, even at pH4 |
| NC(=O)CNC(=O)[C@H](CSC1CC(=O)N(Cc2ccccc2)C1=O)NC(=O)[C@@H](N)CCNC(=O)Oc1ccc(C[C@H](N)C(=O)Nc2ccccc2)cc1 (stereo partly shown) [Example 7C] | 0% | 0% | 0% | 6% | 23% |  |
| N[C@@H](Cc1ccc(OC(=O)NCC[C@H](N)C(=O)N[C@@H](CSC2CC(=O)N(Cc3ccccc3)C2=O)C(=O)Nc2ccccc2)cc1)C(=O)Nc1ccccc1 (stereo partly shown) [Example 12C] | 0% | 0% | 0% | 29% | 76% | cleaved quickly |
| N[C@@H](CCNC(=O)Oc1ccc(C[C@H](N)C(=O)Nc2ccccc2)cc1)C(=O)NCCSC1CC(=O)N(Cc2ccccc2)C1=O (stereo partly shown) [Example 6C] | 0% | 0% | 0% | 6% | 20% |  |
| N[C@@H](CCNC(=O)Oc1ccc(C[C@H](N)C(=O)Nc2ccccc2)cc1)C(=O)NCCOCCOCCOCCn1cc(-c2ccccc2)nn1 [Example 10Cb, O-{[(14S)-14-Amino-13-oxo-1-(4-phenyl-1H-1,2,3-triazol-1-yl)-3,6,9-trioxa-12-azahexadecan-16-yl]carbamoyl}-N-phenyl-L-tyrosinamide] | 0% | 0% | 0% | 4% | 14% | cleaved slowly |
| NC(=O)[C@H](CSC1CC(=O)N(Cc2ccccc2)C1=O)NC(=O)CNC(=O)[C@@H](N)CCNC(=O)Oc1ccc(C[C@H](N)C(=O)Nc2ccccc2)cc1 (stereo partly shown) [Example 8C] | 0% | 0% | 0% | 6% | 23% |  |
| NCCC[C@H](NC(=O)Oc1ccc(C[C@H](N)C(=O)Nc2ccccc2)cc1)C(=O)N[C@@H](CSC1CC(=O)N(Cc2ccccc2)C1=O)C(N)=O (stereo partly shown) [Example 4C] | 0% | 0% | 0% | 23% | 65% | cleaved quickly |
| NC(=O)[C@H](CSC1CC(=O)N(Cc2ccccc2)C1=O)NC(=O)CCCCCNC(=O)[C@@H](N)CCNC(=O)Oc1ccc(C[C@H](N)C(=O)Nc2ccccc2)cc1 (stereo partly shown) [Example 9C] | 0% | 0% | 0% | 7% | 25% |  |
| NC(=O)[C@H](CSC1CC(=O)N(Cc2ccccc2)C1=O)NC(=O)[C@@H](N)CCNC(=O)Oc1ccc(C[C@H](N)C(=O)Nc2ccccc2)cc1 (stereo partly drawn) [Example 1C, O-{[(3S)-3-Amino-4-({(2R)-1-amino-3-[(1-benzyl-2,5-dioxopyrrolidin-3-yl)sulfanyl]-1-oxopropan-2-yl}amino)-4-oxobutyl]carbamoyl}-N-phenyl-L-tyrosinamide] | 0% | 1% | 0% | 7% | 21% |  |
| NC(=O)[C@H](CSC1CC(=O)N(Cc2ccccc2)C1=O)NC(=O)[C@@H](N)CCCNC(=O)Oc1ccc(C[C@H](N)C(=O)Nc2ccccc2)cc1 (stereo partly shown) [Example 3C] | 0% | 0% | 0% | 2% | 11% | cleaved slowly |
